Experimental data: ChEMBL document CHEMBL3885861, “Open TG-GATES”

Organism: Rattus norvegicus
Experiment: Open TG-GATES - Regimen: Daily Repeat
Type: toxicity, organism-based, Sprague-Dawley
Design: regimen Daily Repeat, gender Male, age 6 weeks
Details: in vivo, po, 0 mg/kg, route gavage, dose level Control; for APTT / Bas / Eos / Fbg / Hb / Ht / Lym / MCH / MCHC / MCV / Mono / Neu / PT / Plat / RBC / Ret / WBC: tissue Blood
[1] = 72 h, tissue Kidney, time 3 day
[2] = 72 h, tissue Plasma, time 3 day

In the case of `CNC(=C[N+](=O)[O-])NCCSCc1ccc(CN(C)C)o1` [RANITIDINE], the TERMINAL_BW (72 h, time 3 day) is reported as 234.4 g, the APTT (72 h, time 3 day) is reported as 18.8 s and the Bas (72 h, time 3 day) is reported as 0%. It also gave an Eos (72 h, time 3 day) of 1%, a Fbg (72 h, time 3 day) of 243.4 mg/dL and a Hb (72 h, time 3 day) of 13.9 g/dL. For the same molecule, the Ht (72 h, time 3 day) was 40.4%, the Lym (72 h, time 3 day) was 79.8% and the MCH (72 h, time 3 day) was 22.1 pg. The MCHC (72 h, time 3 day) was 34.4%, the MCV (72 h, time 3 day) was 64.2 fL and the Mono (72 h, time 3 day) was 2.6%. It also gave a Neu (72 h, time 3 day) of 15.2%, a PT (72 h, time 3 day) of 11.9 s and a Plat (72 h, time 3 day) of 112 x10_4/uL. The RBC (72 h, time 3 day) was 629.4 x10_4/ul, the Ret (72 h, time 3 day) was 5.1% and the WBC (72 h, time 3 day) was 95.3 x10_2/uL. For the same molecule, the KIDNEY_L [1] was 1.1 g, the KIDNEY_R [1] was 1.1 g and the KIDNEY_TOTAL [1] was 2.2 g. For the same molecule, the LIVER (72 h, tissue Liver, time 3 day) was 11.5 g, the A/G [2] was 1.6 and the ALP [2] was 924 IU/L. For the same molecule, the ALT [2] was 35.2 IU/L, the AST [2] was 66.6 IU/L and the BUN [2] was 16.6 mg/dL. For the same molecule, the CRE [2] was 0.4 mg/dL, the Ca [2] was 10.9 mg/dL and the Cl [2] was 103.8 meq/L. It also gave a DBIL [2] of 0.1 mg/dL, a GLC [2] of 198.8 mg/dL and an IP [2] of 7.4 mg/dL. For the same molecule, the K [2] was 4.2 meq/L, the LDH [2] was 178.4 IU/L and the Na [2] was 140.4 meq/L. The PL [2] was 169.6 mg/dL, the RALB [2] was 3.5 g/dL and the TBIL [2] was 0.2 mg/dL. It also gave a TC [2] of 92.4 mg/dL, a TG [2] of 92.4 mg/dL and a TP [2] of 5.7 g/dL. It also gave a gamma-GTP [2] of 1.2 IU/L, a TERMINAL_BW ([…], time 7 day) of 265.4 g and a TERMINAL_BW ([…], time 14 day) of 305.8 g. The TERMINAL_BW ([…], time 28 day) was 385.4 g, the APTT ([…], time 7 day) was 19.3 s and the Bas ([…], time 7 day) was 0%. For the same molecule, the Eos ([…], time 7 day) was 1.2%, the Fbg ([…], time 7 day) was 225.8 mg/dL and the Hb ([…], time 7 day) was 13.9 g/dL. The Ht ([…], time 7 day) was 39.4%, the Lym ([…], time 7 day) was 76.6% and the MCH ([…], time 7 day) was 21.8 pg. It also gave an MCHC ([…], time 7 day) of 35.3%, an MCV ([…], time 7 day) of 61.7 fL and a Mono ([…], time 7 day) of 2.4%. For the same molecule, the Neu ([…], time 7 day) was 18.4%, the PT ([…], time 7 day) was 12.1 s and the Plat ([…], time 7 day) was 120.4 x10_4/uL. For the same molecule, the RBC ([…], time 7 day) was 639 x10_4/ul, the Ret ([…], time 7 day) was 4.9% and the WBC ([…], time 7 day) was 90.8 x10_2/uL. It also gave an APTT ([…], time 14 day) of 20.1 s, a Bas ([…], time 14 day) of 0% and an Eos ([…], time 14 day) of 1%. For the same molecule, the Fbg ([…], time 14 day) was 238.8 mg/dL, the Hb ([…], time 14 day) was 14.8 g/dL and the Ht ([…], time 14 day) was 42.2%. For the same molecule, the Lym ([…], time 14 day) was 75.6%, the MCH ([…], time 14 day) was 20.6 pg and the MCHC ([…], time 14 day) was 35.2%. The MCV ([…], time 14 day) was 58.6 fL, the Mono ([…], time 14 day) was 2.4% and the Neu ([…], time 14 day) was 19.2%. It also gave a PT ([…], time 14 day) of 12 s, a Plat ([…], time 14 day) of 115.1 x10_4/uL and an RBC ([…], time 14 day) of 720.6 x10_4/ul. The Ret ([…], time 14 day) was 3.7%, the WBC ([…], time 14 day) was 101.2 x10_2/uL and the APTT ([…], time 28 day) was 20.9 s. For the same molecule, the Bas ([…], time 28 day) was 0.4%, the Eos ([…], time 28 day) was 1.4% and the Fbg ([…], time 28 day) was 223.8 mg/dL. The Hb ([…], time 28 day) was 15.6 g/dL and the Ht ([…], time 28 day) was 43.7%.
